Here are results for four compounds from patent US8765759B2, “Monocyclic CGRP receptor antagonists” (Merck Sharp & Dohme Corp., priority 2008, dated 2014).

Usually Ki stands for the dissociation constant of the complex between target and ligand, obtained from inhibition or displacement.

The experiment addresses T1, recombinant human CL receptor/RAMP1 (Homo sapiens, UniProt O60894+Q16602).
T1 construct: expressed in transfected cells; membranes
Description: RECOMBINANT RECEPTOR BINDING ASSAY (125I-hCGRP). Particulars: 125I-hCGRP binding to membranes of HEK 293 cells expressing recombinant human CL receptor/RAMP1; stated as 'generally ... less than about'. The protocol: RECOMBINANT RECEPTOR: Human CL receptor (Genbank accession number L76380) was subcloned into the expression vector pIREShyg2 (BD Biosciences Clontech) as a 5′NheI and 3′ PmeI fragment. Human RAMP1 (Genbank accession number AJ001014) was subcloned into the expression vector pIRESpuro2 (BD Biosciences Clontech) as a 5′NheI and 3′NotI fragment. HEK 293 cells (human embryonic kidney cells; ATCC #CRL-1573) were cultured in DMEM with 4.5 g/L glucose, 1 mM sodium pyruvate and 2 mM glutamine supplemented with 10% fetal bovine serum (FBS), 100 units/mL penicillin and 100 μg/mL streptomycin, and maintained at 37° C. and 95% humidity. Cells were subcultured by treatment with 0.25% trypsin with 0.1% EDTA in HBSS. Stable cell line generation was accomplished by co-transfecting 10 μg of DNA with 30 μg Lipofectamine 2000 (Invitrogen) in 75 cm^2 flasks. CL receptor and RAMP1 expression constructs were co-transfected in equal amounts. Twenty-four hours after transfection the cells were diluted and selective medium (growth medium+300 μg/mL hygromycin and 1 μg/mL puromycin) was added the following day. A clonal cell line was generated by single cell deposition utilizing a FACS Vantage SE (Becton Dickinson). Growth medium was adjusted to 150 μg/mL hygromycin and 0.5 μg/mL puromycin for cell propagation.
RECOMBINANT RECEPTOR BINDING ASSAY: Cells expressing recombinant human CL receptor/RAMP1 were washed with PBS and harvested in harvest buffer containing 50 mM HEPES, 1 mM EDTA and Complete protease inhibitors (Roche). The cell suspension was disrupted with a laboratory homogenizer and centrifuged at 48,000 g to isolate membranes. The pellets were resuspended in harvest buffer plus 250 mM sucrose and stored at −70° C. For binding assays, 20 μg of membranes were incubated in 1 ml binding buffer (10 mM HEPES, pH 7.4, 5 mM MgCl2, and 0.2% BSA) for 3 hours at room temperature containing […] ^125I-hCGRP (GE Healthcare) and antagonist. The assay was terminated by filtration through 96-well GFB glass fiber filter plates (PerkinElmer) that had been blocked with 0.05% polyethyleneimine. The filters were washed 3 times with ice-cold assay buffer (10 mM HEPES, pH 7.4 and 5 mM MgCl2). Scintillation fluid was added and the plates were counted on a Topcount (Packard). Non-specific binding was determined and the data analysis was carried out with the apparent dissociation constant (Ki) determined by using a non-linear least squares fitting the bound CPM data to the equation below:
[formula] […]

Molecules are shown by their SMILES.

T1 sequence (Q16602 23-461): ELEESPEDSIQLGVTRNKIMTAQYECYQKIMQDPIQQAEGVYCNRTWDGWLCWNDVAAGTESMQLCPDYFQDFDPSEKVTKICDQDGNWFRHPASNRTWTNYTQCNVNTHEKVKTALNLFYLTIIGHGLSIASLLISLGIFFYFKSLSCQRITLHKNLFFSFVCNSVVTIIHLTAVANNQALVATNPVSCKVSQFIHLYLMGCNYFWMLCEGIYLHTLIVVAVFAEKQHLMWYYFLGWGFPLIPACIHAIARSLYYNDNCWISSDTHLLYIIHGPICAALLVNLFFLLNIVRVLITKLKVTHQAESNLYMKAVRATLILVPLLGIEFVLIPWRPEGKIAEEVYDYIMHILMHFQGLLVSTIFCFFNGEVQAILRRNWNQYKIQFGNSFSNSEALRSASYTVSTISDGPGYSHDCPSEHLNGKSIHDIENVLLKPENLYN
T1 sequence (O60894 27-148): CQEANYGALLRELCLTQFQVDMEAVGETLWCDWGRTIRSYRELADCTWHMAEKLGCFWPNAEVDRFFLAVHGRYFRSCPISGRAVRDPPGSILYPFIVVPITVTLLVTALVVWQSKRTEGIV

For `CN1C[C@@](C)(c2cc(F)cc(F)c2)N(C/C=C/c2ccc3c(c2)C[C@@]2(C3)C(=O)Nc3ncccc32)C(=O)C12CCCC2` [Example 8], the inhibition constant Ki is less than 50 µM.
As for `CN1C[C@@](C)(c2cc(F)cc(F)c2)N(CCCc2ccc3c(c2)C[C@@]2(C3)C(=O)Nc3ncccc32)C(=O)C12CCCC2` [Example 9], the figure is less than 50 µM; as for `C[C@@]1(c2cc(F)cc(F)c2)CNC2(CCCC2)C(=O)N1CCOc1ccc2c(c1)C[C@@]1(C2)C(=O)Nc2ncccc21` [Example 13], less than 50 µM.
As for `CN1C[C@@](C)(c2cc(F)cc(F)c2)N(CCOc2ccc3c(c2)C[C@@]2(C3)C(=O)Nc3ncccc32)C(=O)C12CCCC2` [Example 15], the figure is less than 50 µM.
